What all share (assay): Protein kinase selectivity panel
Common to all, as to type: biochemical
Common to all, as to conditions: 1.0 μM compound, 10 μM ATP

One assay addresses PKCδ(h) (Homo sapiens, UniProt Q05655). In a few lines:
(§1)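 Single-point screen: compound 1.0 μM; ATP 10 μM; peptide/protein substrate matched to each kinase; reaction linear in time.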

The next assay concerns the target T1, Bmx(h) (Homo sapiens, UniProt P51813).
T1 sequence (P51813 1-675): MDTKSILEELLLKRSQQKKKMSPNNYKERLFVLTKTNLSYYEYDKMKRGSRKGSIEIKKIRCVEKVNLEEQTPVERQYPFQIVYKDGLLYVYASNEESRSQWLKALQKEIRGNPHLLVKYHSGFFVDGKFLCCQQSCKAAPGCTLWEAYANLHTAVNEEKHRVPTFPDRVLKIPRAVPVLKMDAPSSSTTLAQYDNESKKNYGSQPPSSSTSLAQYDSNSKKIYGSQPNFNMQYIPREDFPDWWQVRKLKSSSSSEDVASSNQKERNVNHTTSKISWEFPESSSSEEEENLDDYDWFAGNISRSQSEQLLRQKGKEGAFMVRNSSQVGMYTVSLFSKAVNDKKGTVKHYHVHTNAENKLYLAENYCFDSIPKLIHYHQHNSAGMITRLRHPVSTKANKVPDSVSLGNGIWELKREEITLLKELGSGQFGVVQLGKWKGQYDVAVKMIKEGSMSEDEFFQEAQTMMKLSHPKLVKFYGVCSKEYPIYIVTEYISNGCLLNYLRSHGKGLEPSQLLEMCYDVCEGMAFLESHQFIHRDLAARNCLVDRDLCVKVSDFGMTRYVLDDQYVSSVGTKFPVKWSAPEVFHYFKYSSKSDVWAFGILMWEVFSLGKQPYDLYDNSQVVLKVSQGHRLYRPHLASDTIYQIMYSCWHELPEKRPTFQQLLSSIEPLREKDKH
In outline: as §1

Another assay has as its target T2, NEK2(h) (Homo sapiens, UniProt P51955).
T2 sequence (P51955 1-445): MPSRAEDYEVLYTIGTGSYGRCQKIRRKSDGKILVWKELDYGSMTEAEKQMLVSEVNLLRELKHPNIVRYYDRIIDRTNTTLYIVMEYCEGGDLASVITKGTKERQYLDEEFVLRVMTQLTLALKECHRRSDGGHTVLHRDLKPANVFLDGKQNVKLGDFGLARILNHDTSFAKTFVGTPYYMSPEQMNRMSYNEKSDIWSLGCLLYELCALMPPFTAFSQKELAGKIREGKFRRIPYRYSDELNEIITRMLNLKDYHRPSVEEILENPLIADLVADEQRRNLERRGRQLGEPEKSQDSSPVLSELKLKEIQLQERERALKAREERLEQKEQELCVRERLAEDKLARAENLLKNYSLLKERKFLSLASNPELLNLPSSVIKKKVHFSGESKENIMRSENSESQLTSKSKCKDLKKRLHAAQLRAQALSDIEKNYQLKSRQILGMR
In a few lines: as §1

A further assay concerns the target T3, SAPK4(h) (Homo sapiens, UniProt O15264).
T3 sequence (O15264 1-365): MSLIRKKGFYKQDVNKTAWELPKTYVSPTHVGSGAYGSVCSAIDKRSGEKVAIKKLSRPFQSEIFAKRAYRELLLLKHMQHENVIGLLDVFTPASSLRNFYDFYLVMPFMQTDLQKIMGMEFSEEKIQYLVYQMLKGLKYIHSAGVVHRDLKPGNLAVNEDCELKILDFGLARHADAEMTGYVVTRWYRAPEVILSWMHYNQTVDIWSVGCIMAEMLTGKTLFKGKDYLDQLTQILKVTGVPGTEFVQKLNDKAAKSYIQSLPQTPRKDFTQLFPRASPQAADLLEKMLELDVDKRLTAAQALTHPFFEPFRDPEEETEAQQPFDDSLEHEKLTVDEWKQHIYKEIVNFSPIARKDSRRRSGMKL
In outline:
as §1

A further assay has as its target T4, IKKβ(h) (Homo sapiens, UniProt O14920).
T4 sequence (O14920 1-756): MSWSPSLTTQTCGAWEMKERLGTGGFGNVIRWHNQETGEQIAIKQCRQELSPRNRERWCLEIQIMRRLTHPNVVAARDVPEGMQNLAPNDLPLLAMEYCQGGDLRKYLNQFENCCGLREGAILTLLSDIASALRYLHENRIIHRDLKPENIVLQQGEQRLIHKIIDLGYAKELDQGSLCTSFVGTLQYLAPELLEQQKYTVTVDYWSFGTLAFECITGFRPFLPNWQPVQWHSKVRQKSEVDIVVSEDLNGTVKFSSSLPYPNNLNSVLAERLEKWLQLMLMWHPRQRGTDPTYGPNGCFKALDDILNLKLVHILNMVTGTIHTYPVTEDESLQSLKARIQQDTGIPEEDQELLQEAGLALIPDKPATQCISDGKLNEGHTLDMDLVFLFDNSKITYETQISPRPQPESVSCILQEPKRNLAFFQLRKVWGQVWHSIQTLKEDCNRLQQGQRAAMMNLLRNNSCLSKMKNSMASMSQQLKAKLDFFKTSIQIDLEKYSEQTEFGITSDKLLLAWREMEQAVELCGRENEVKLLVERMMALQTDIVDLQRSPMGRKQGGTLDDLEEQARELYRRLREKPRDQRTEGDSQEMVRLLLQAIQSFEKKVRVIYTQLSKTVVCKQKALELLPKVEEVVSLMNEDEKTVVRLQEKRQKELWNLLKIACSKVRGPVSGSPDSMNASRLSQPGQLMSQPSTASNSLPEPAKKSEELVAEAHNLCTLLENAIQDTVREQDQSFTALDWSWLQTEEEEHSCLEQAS
In a few lines:
as §1

The record followed here is patent publication US7759331B2, “Pyridine-containing macroheterococylic compounds as kinase inhibitors” (Janssen Pharmaceutica NV, priority 2006, dated 2010).

PKCδ(h), sequence (Q05655 whole entry): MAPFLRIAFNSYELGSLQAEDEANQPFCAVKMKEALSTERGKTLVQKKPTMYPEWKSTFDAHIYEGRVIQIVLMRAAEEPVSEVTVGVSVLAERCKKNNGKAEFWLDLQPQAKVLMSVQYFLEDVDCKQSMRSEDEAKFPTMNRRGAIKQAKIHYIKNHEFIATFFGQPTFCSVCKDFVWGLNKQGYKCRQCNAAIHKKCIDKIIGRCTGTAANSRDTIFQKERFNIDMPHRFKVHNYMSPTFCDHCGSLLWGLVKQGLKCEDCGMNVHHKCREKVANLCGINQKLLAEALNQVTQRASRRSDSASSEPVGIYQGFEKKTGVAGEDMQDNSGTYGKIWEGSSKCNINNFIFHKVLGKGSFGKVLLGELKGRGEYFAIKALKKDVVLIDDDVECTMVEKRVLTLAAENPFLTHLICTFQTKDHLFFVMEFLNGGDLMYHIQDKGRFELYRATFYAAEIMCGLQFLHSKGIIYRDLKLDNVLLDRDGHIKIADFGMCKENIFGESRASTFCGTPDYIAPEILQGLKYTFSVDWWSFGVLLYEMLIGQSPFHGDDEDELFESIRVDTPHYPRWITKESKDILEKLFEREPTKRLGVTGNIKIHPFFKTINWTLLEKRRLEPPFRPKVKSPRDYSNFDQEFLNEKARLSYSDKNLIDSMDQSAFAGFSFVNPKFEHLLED

Regarding `CN(C)c1nc2ccc1CCCCn1cc(c3ccccc31)C1=C(C(=O)NC1=O)c1cn(c3ccccc13)CCC2` [Cpd 1, 31-(dimethylamino)-5,15,25,32-tetraazaheptacyclo[28.2.2.1^5,12.1^18,25.0^6,11.0^13,17.0^19,24]hexatriaconta-1(32),6,8,10,12(36),13(17),18(35),19,21,23,30,33-dodecaene-14,16-dione], on PKCδ(h), the “Activity at Protein Kinase Assays (% of control), PKCδ(h)” value (from here on “Activity … (% of control), PKCδ(h)”) is reported as 73 % of control. The “Activity at Protein Kinase Assays (% of control), Bmx(h)” value (“Activity … (% of control), Bmx(h)” for short) at Bmx(h) is on record as 101 % of control. Besides, the “Activity at Protein Kinase Assays (% of control), NEK2(h)” value (“Activity … (% of control), NEK2(h)” below) on NEK2(h) was 104 % of control. For the same molecule, the “Activity at Protein Kinase Assays (% of control), SAPK4(h)” value (“Activity … (% of control), SAPK4(h)” below) at SAPK4(h) is 101 % of control. In addition, the “Activity at Protein Kinase Assays (% of control), IKKβ(h)” value (“Activity … (% of control), IKKβ(h)” for short) at IKKβ(h) was 128 % of control.

With `CN(C)c1cc2cc(n1)CCCn1cc(c3ccccc31)C1=C(C(=O)NC1=O)c1cn(c3ccccc13)CCC2` [Cpd 2, 20-(dimethylamino)-4,14,19,26-tetraazaheptacyclo[24.6.1.1^7,14.1^18,22.0^2,6.0^8,13.0^27,32]pentatriaconta-1(33),2(6),7(35),8,10,12,18(34),19,21,27,29,31-dodecaene-3,5-dione], the “Activity … (% of control), PKCδ(h)” value at PKCδ(h) is recorded as 100 % of control. Moreover, the “Activity … (% of control), Bmx(h)” value on Bmx(h) was 159 % of control. For the same molecule, at NEK2(h), the “Activity … (% of control), NEK2(h)” value is reported as 102 % of control. Besides, the “Activity … (% of control), SAPK4(h)” value on SAPK4(h) is listed as 104 % of control. For the same molecule, the “Activity … (% of control), IKKβ(h)” value on IKKβ(h) is 124 % of control.

As for `O=C1NC(=O)C2=C1c1cn(c3ccccc13)CCCc1cc(nc(N3CCCC3)c1)CCCn1cc2c2ccccc21` [Cpd 6, 20-pyrrolidin-1-yl-4,14,19,26-tetraazaheptacyclo[24.6.1.1^7,14.1^18,22.0^2,6.0^8,13.0^27,32]pentatriaconta-1(33),2(6),7(35),8,10,12,18(34),19,21,27,29,31-dodecaene-3,5-dione], the “Activity … (% of control), PKCδ(h)” value on PKCδ(h) was 104 % of control. Besides, on Bmx(h), the “Activity … (% of control), Bmx(h)” value is given as 173 % of control. Besides, the “Activity … (% of control), NEK2(h)” value at NEK2(h) is given as 105 % of control. Besides, on SAPK4(h), the “Activity … (% of control), SAPK4(h)” value was 102 % of control. In addition, at IKKβ(h), the “Activity … (% of control), IKKβ(h)” value is 125 % of control.

On to `O=C1NC(=O)C2=C1c1cn(c3ccccc13)CCCc1ccc(c(N3CCCC3)n1)CCCn1cc2c2ccccc21` [Cpd 7, 31-pyrrolidin-1-yl-5,15,25,30-tetraazaheptacyclo[27.2.2.1^5,12.1^18,25.0^6,11.0^13,17.0^19,24]pentatriaconta-1(31),6,8,10,12(35),13(17),18(34),19,21,23,29,32-dodecaene-14,16-dione], for which, at PKCδ(h), the “Activity … (% of control), PKCδ(h)” value was 91 % of control. In addition, on Bmx(h), the “Activity … (% of control), Bmx(h)” value is given as 176 % of control. Also, the “Activity … (% of control), NEK2(h)” value on NEK2(h) was 99 % of control. Further, the “Activity … (% of control), SAPK4(h)” value at SAPK4(h) was 102 % of control. Moreover, at IKKβ(h), the “Activity … (% of control), IKKβ(h)” value is 130 % of control.
